Data reported in patent US7531320B2, “Modulation of β-catenin/TCF-activated transcription” (priority 2003, dated 2009).

Columns and labels:
[1] = test system: caspase-3/7 in SW480 cells; experiment: Caspase-3/7 activity assay, SW480 cells; type: cell-based, human; settings: 25 μM, 24 hours, compared to CCD18Co cells
Method: FIG. 6. • A. COMPOUND 1 arrests cells in G1. FACS analysis was performed on SW480 (lower panel) and HCT116 (upper panel) cells treated for 24 hours with either COMPOUND 1 (25 μM) (right) or control (0.5% DMSO (left). 5.5×10^6 cells were fixed and stained with propidium iodide (PI). G0/G1, S, and G2/M are indicated by arrows. • B. COMPOUND 1 selectively activates caspases in colon carcinoma cell lines. SW480 and HCT116 (left graph) cells (10^5) along with the normal colonocytes, CCD18Co (right graph) were treated with either control (0.5% DMSO) or COMPOUND 1 (25 μM). 24 hours post treatment, cells were lysed and the caspase-3/7 enzymatic activities were measured. Relative fluorescence units (RFU) were calculated by subtracting the unit values of the blank (control, without cells) from the treated samples (COMPOUND 1 or control) and plotted.
SW480, HCT116, and CCD18Co cells were plated at 10^5 cells per well (96-well plates) for 24 hours prior to treatment. 25 μM of COMPOUND 1 or control (0.5% DMSO) was added to each well. 24 hours post treatment, cells were lysed and caspase activity was measured using a caspase-3/7 activity kit (Apo-One Homogeneous caspase-3/7 assay, #G77905, Promega). Relative fluorescence units (RFU) were obtained by subtracting the unit values of the blank (control, without cells) from the experimental measured values. […]

[2] = test system: β-catenin/TCF reporter gene construct; experiment: β-catenin/TCF luciferase reporter assay in SW480 cells; type: cell-based, human
Method: FIG. 1. COMPOUND 1 inhibits β-catenin/TCF transcription. • A(i) and A(ii). Structures of COMPOUND 1, COMPOUND 2, COMPOUND 3, COMPOUND 4, and COMPOUND 5. • B(i) and B(ii). […] SW480 cells (10^5), (FIG. 1B(i)), were transfected with β-catenin/TCF luciferase construct. Cells were treated with COMPOUND 1 (1-64 μM). 24 hours post treatment lysates were prepared and subjected to dual luciferase assay. The data is represented in different form in FIG. 1B(ii). • C. COMPOUND 1 has no effect on NFAT reporter construct. Stably transfected Jurkat cells, right panel, with an NFAT reporter construct, were stimulated with PMA (10 ng/ml)/lonomycin (1 μg/ml), and treated with COMPOUND 1 (0.781-50 μM). 24 hours post treatment lysates were prepared and subjected to dual luciferase assay. All experiments were performed in duplicate and the values plotted as means +/−standard deviation. • D. CBP is the molecular target of COMPOUND 1. Nuclear extracts of SW480 cells were incubated with streptavidin-agarose beads coated with COMPOUND 2 (25 μM). Beads were washed 3 times and the eluted were subjected to gel electrophoresis and immunoblotting, with anti-CBP antibodies. […] The lysates were desalted using G-25 1 cc columns (Pharmacia) to remove the unbound ^14C-labeled-COMPOUND 1, and ^14C-labeled-COMPOUND 1 incorporation was measured. […]

O=C1C(Cc2ccc(O)cc2)N2C(=O)CCN(C(=O)NCc3ccccc3)C2CN1Cc1cccc2ccccc12 (stereo not drawn) [COMPOUND 1]
Caspase-3/7 activity [1]: specifically and significantly activated | Change of IC50 of COMPOUND 1 on transfection of increasing concentration of CBP ([2]; SW480 cells cotransfected with CBP (not β-catenin), dose-dependent): increased the IC50 | IC50 ([2]; SW480 cells, 1-64 μM, 24 hours post treatment, dual luciferase assay): 5 µM
